In patent US20030082227A1, “Transdermal device comprising a reservoir and a matrix containing the same active principle” (priority 1999, published 2003):

Experiment: Solubility of testosterone in tetrahydrofuran
Format: physicochemical

C[C@]12CC[C@H]3[C@@H](CCC4=CC(=O)CC[C@@]43C)[C@@H]1CC[C@@H]2O [testosterone, 17β-hydroxyandrost-4-en-3-one]
solubility of testosterone in THF: ~27 % m/m
